Source: patent publication US12371428B2 (Exelixis, Inc., priority 2019, dated 2025)
Structures can show the parent of a compound that is named as a salt.

Assays:
[1] = target: Human KDR (residues 790-1356) (Homo sapiens (Human), UniProt P35968); test: Human KDR kinase assay, HTRF KinEase (Example B-2); format: biochemical; conditions: protocol of Example B-2 (other compounds)
Method in brief: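 Ten compound concentrations (3% DMSO final) were pre-plated, then KDR (790-1356) with biotinylated peptide in Mg/Mn/DTT buffer was added; ATP at Km (4.0 μM) started a 40 min room-temperature reaction. Detection used Eu-TK antibody and SA-XL665 in EDTA buffer; activity normalized to DMSO and reference inhibitor, IC50 by logistic fit.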

[2] = target: Human MET (residues 956-1390) (Homo sapiens (Human), UniProt P08581); test: Human Met kinase assay, HTRF KinEase (Example D-2); format: biochemical; conditions: protocol of Example D-2 (other compounds); read-out: c-Met IC50
Sequence of Human MET (residues 956-1390) (P08581 956-1390): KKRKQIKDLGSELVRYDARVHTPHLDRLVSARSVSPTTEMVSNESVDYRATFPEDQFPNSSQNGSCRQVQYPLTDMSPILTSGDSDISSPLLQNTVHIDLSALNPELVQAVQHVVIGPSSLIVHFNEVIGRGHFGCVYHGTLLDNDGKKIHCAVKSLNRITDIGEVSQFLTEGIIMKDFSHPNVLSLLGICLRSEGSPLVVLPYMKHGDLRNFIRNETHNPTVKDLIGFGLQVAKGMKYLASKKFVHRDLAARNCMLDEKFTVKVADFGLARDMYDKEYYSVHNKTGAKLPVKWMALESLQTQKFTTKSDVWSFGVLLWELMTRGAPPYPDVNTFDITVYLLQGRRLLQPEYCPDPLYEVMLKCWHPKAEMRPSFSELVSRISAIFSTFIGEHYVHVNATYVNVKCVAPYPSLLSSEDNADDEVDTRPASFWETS
Method in brief: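 HTRF KinEase assay on MET residues 956-1390 (0.1 ng/well) in buffer with 5 mM MgCl2, 1 mM DTT and 1 mM MnCl2, with biotinylated peptide substrate, ATP at Km, 10 compound concentrations and 3% DMSO final, run 40 min at room temperature. The […] signal was normalized to DMSO and to 1 μM reference compound, and IC50 came from a 4-parameter logistic fit.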

[3] = target: KDR (phospho-KDR, VEGF165-stimulated HUVEC cells) (Homo sapiens (Human), UniProt P35968); test: KDR autophosphorylation ELISA in HUVEC cells (Example G); format: cell-based; conditions: cellular activity; KDR autophosphorylation ELISA in HUVEC cells
Sequence of KDR (phospho-KDR, VEGF165-stimulated HUVEC cells) (P35968 20-1356): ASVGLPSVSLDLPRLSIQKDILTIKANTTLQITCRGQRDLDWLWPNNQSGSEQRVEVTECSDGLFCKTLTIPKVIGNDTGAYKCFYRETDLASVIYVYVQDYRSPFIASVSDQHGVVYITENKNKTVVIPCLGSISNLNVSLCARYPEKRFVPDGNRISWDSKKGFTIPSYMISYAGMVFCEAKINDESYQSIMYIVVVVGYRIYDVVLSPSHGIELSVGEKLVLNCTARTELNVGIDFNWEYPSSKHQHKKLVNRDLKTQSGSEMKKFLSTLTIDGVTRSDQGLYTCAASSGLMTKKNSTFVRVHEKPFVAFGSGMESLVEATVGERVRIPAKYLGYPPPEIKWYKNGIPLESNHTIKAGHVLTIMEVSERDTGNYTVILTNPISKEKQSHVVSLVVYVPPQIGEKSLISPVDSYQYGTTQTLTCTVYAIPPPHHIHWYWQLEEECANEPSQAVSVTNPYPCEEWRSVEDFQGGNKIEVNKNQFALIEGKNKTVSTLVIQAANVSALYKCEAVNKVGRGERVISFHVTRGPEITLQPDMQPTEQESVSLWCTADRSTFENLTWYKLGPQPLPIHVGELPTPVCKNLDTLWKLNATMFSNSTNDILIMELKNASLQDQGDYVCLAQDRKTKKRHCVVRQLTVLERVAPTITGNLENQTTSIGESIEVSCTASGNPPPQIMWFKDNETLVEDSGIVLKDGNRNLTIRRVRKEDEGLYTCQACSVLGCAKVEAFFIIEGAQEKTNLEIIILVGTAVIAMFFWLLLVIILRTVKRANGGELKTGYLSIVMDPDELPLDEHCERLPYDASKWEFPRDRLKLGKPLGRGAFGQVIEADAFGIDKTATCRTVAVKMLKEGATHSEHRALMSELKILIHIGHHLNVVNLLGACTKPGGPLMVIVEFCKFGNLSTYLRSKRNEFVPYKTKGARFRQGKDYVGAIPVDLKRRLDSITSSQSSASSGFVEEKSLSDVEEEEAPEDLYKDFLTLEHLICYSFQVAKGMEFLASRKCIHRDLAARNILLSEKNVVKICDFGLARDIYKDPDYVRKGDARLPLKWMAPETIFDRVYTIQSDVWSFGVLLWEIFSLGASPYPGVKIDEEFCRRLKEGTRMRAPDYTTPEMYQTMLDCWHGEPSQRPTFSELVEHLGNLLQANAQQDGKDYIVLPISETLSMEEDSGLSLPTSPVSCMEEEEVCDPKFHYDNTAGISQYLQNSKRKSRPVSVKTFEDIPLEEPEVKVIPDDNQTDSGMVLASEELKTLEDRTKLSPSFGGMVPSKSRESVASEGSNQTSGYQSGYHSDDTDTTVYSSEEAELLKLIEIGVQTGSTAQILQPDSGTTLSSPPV
Method in brief: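 Read-out is phospho-KDR measured by ELISA in lysates of VEGF165-stimulated (100 ng/mL, 5 min) HUVEC that were serum-starved 24 h and then pre-exposed 1 h to compound across 8 doses in 0.3% DMSO. Unstimulated lysates defined 0% and stimulated vehicle lysates 100% activity; IC50 values come from 4-parameter logistic regression.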

[4] = target: Mer (phospho-Mer, MERTK-transfected 293A cells) (Homo sapiens (Human), UniProt Q12866); test: Mer autophosphorylation ELISA in transient transfected 293A cells (Example H); format: cell-based; conditions: cellular activity; Mer autophosphorylation ELISA in transient transfected 293A cells
Sequence of Mer (phospho-Mer, MERTK-transfected 293A cells) (Q12866 21-999): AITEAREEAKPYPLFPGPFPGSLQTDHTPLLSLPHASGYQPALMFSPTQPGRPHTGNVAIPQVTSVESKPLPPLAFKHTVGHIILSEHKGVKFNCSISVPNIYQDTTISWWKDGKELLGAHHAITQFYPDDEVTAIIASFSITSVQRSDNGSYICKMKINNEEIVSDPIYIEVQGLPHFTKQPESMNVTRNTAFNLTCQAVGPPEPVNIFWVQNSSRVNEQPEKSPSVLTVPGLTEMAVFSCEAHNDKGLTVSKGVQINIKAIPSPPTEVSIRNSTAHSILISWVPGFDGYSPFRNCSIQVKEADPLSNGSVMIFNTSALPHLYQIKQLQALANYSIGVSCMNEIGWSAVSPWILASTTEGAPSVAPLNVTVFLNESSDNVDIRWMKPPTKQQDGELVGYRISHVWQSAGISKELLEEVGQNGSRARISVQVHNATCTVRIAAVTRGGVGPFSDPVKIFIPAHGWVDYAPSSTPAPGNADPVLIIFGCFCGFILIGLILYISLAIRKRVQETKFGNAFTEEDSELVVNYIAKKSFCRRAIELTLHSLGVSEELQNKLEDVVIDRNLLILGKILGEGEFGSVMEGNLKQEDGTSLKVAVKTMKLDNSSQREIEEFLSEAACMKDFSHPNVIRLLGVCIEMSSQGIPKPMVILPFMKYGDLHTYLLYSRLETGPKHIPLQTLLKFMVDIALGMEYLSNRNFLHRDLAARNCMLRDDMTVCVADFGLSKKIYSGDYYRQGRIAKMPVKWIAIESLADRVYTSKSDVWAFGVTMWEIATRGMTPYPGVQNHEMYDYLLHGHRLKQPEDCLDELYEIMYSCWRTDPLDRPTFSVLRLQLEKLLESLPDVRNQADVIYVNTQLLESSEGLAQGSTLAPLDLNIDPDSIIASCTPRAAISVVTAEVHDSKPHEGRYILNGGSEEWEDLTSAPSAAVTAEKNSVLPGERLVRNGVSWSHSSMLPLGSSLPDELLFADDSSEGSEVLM
Method in brief: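 MERTK-transfected 293A; 8-pt dose, 1 h, serum-free, 0.3% DMSO. Cold lysis with orthovanadate and protease/phosphatase inhibitors. Phospho-Mer by DuoSet IC ELISA vs phospho-Mer standard. IC50: 4-PL fit; DMSO = 100%, reference inhibitor = 0%.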

Sequence of Human KDR (residues 790-1356) (P35968 790-1356): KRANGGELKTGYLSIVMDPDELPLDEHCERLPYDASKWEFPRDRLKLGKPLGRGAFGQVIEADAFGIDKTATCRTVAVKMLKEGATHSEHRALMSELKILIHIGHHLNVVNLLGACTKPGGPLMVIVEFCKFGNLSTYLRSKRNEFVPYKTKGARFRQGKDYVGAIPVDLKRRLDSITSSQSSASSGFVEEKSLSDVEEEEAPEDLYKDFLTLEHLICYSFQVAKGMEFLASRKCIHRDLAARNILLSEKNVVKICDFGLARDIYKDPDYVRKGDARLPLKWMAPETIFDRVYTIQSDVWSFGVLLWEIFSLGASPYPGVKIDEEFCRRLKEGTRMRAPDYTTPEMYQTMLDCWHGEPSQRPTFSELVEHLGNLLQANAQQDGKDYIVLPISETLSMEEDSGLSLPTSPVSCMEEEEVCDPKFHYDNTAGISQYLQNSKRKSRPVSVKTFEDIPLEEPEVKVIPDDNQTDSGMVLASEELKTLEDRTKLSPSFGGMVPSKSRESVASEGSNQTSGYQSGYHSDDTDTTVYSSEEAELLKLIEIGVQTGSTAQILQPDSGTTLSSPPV

Row | SMILES | IC50 [1] | IC50 [2] | IC50 [3] | IC50 [4]
1 | COc1cnc2c(Oc3ccc(NC(=O)c4ccc(C)n(-c5ccc(F)cc5C)c4=O)cc3F)ccnc2c1 [Compound 220, N-[3-Fluoro-4-[(7-methoxy-1,5-naphthyridin-4-yl)oxy]phenyl]-1-(4-fluoro-2-methylphenyl)-6-methyl-2-oxopyridine-3-carboxamide] | < 0.1 µM | < 0.1 µM | < 0.1 µM | < 0.1 µM
2 | COc1cnc2c(Oc3ccc(NC(=O)c4cn(C)c(CO)c(-c5ccc(F)cc5)c4=O)cc3F)ccnc2c1 [Compound 222, N-[3-Fluoro-4-[(7-methoxy-1,5-naphthyridin-4-yl)oxy]phenyl]-5-(4-fluorophenyl)-6-(hydroxymethyl)-1-methyl-4-oxopyridine-3-carboxamide] | > 0.3 µM | < 0.1 µM | > 0.3 µM | < 0.1 µM
3 | COc1cnc2c(Oc3ccc(NC(=O)c4c(C)nc(C)c(-c5ccc(F)cc5C)c4O)cc3F)ccnc2c1 [Compound 178, N-[3-Fluoro-4-[(7-methoxy-1,5-naphthyridin-4-yl)oxy]phenyl]-5-(4-fluoro-2-methylphenyl)-4-hydroxy-2,6-dimethylpyridine-3-carboxamide] | < 0.1 µM | < 0.1 µM | < 0.1 µM | < 0.1 µM
4 | COc1cc2nccc(Oc3ccc(NC(=O)c4ncc(C)n(-c5ccc(F)cc5)c4=O)cc3)c2nc1OC [Compound 262, N-[4-[(6,7-Dimethoxy-1,5-naphthyridin-4-yl)oxy]phenyl]-4-(4-fluorophenyl)-5-methyl-3-oxopyrazine-2-carboxamide] | < 0.1 µM | < 0.1 µM | < 0.1 µM | < 0.1 µM
5 | COc1ccc(-c2c(C)n(C(C)C)cc(C(=O)Nc3ccc(Oc4ccnc5cc(OC)c(OC)nc45)c(F)c3)c2=O)cc1 [Compound 31, N-[4-[(6,7-dimethoxy-1,5-naphthyridin-4-yl)oxy]-3-fluorophenyl]-5-(4-methoxyphenyl)-6-methyl-4-oxo-1-propan-2-ylpyridine-3-carboxamide hydrochloride] | < 0.1 µM | < 0.1 µM | > 0.3 µM | < 0.1 µM
6 | COCCOc1nc2c(Oc3ccc(NC(=O)c4cn(C)c(CO)c(-c5ccc(F)cc5)c4=O)cc3F)ccnc2cc1OC [Compound 228, N-[3-Fluoro-4-[[7-methoxy-6-(2-methoxyethoxy)-1,5-naphthyridin-4-yl]oxy]phenyl]-5-(4-fluorophenyl)-6-(hydroxymethyl)-1-methyl-4-oxopyridine-3-carboxamide] | 0.1 to 0.3 µM | < 0.1 µM | > 0.3 µM | < 0.1 µM
7 | COc1ccc2nccc(Oc3ccc(NC(=O)c4c(C)ncc(-c5ccc(F)cc5)c4O)cc3F)c2n1 [Compound 242, N-[3-Fluoro-4-[(6-methoxy-1,5-naphthyridin-4-yl)oxy]phenyl]-5-(4-fluorophenyl)-4-hydroxy-2-methylpyridine-3-carboxamide] | < 0.1 µM | < 0.1 µM | < 0.1 µM | < 0.1 µM
8 | COc1cc2nccc(Oc3ccc(NC(=O)c4c(C)nc(C)c(-c5ccc(F)cc5C)c4O)cc3F)c2nc1OC [Compound 177, N-[4-[(6,7-Dimethoxy-1,5-naphthyridin-4-yl)oxy]-3-fluorophenyl]-5-(4-fluoro-2-methylphenyl)-4-hydroxy-2,6-dimethylpyridine-3-carboxamide] | < 0.1 µM | < 0.1 µM | < 0.1 µM | < 0.1 µM
9 | COc1cnc2c(Oc3ccc(NC(=O)c4cn(CC(F)(F)F)c(C)c(-c5ccc(F)cc5)c4=O)cc3F)ccnc2c1 [Compound 261, N-[3-Fluoro-4-[(7-methoxy-1,5-naphthyridin-4-yl)oxy]phenyl]-5-(4-fluorophenyl)-6-methyl-4-oxo-1-(2,2,2-trifluoroethyl)pyridine-3-carboxamide] | > 0.3 µM | < 0.1 µM | > 0.3 µM | < 0.1 µM
10 | COc1cnc2c(Oc3ccc(NC(=O)c4nn(C)c(C)c(-c5ccc(F)cc5)c4=O)cc3)ccnc2c1 [Compound 251, 5-(4-Fluorophenyl)-N-[4-[(7-methoxy-1,5-naphthyridin-4-yl)oxy]phenyl]-1,6-dimethyl-4-oxopyridazine-3-carboxamide] | > 0.3 µM | < 0.1 µM | > 0.3 µM | < 0.1 µM
11 | COc1cnc2c(Oc3ccc(NC(=O)c4c(C)ncc(-c5ccc(F)cc5)c4O)cc3)ccnc2c1 [Compound 236, 5-(4-Fluorophenyl)-4-hydroxy-N-[4-[(7-methoxy-1,5-naphthyridin-4-yl)oxy]phenyl]-2-methylpyridine-3-carboxamide] | < 0.1 µM | < 0.1 µM | < 0.1 µM | < 0.1 µM
12 | COCCOc1nc2c(Oc3ccc(NC(=O)c4ccc(C)n(-c5ccc(F)cc5)c4=O)cc3F)ccnc2cc1OC [Compound 227, N-[3-Fluoro-4-[[7-methoxy-6-(2-methoxyethoxy)-1,5-naphthyridin-4-yl]oxy]phenyl]-1-(4-fluorophenyl)-6-methyl-2-oxopyridine-3-carboxamide] | < 0.1 µM | < 0.1 µM | < 0.1 µM | < 0.1 µM
13 | COCc1nc(C)c(-c2ccc(F)cc2C)c(O)c1C(=O)Nc1ccc(Oc2ccnc3ccc(OC)nc23)c(F)c1 [Compound 195, N-[3-Fluoro-4-[(6-methoxy-1,5-naphthyridin-4-yl)oxy]phenyl]-5-(4-fluoro-2-methylphenyl)-4-hydroxy-2-(methoxymethyl)-6-methylpyridine-3-carboxamide] | > 0.3 µM | 0.1 to 0.3 µM | < 0.1 µM | < 0.1 µM
14 | COc1cc2nccc(Oc3ccc(NC(=O)c4c(C)ncc(-c5ccc(F)cc5)c4O)cc3)c2nc1OC [Compound 235, N-[4-[(6,7-Dimethoxy-1,5-naphthyridin-4-yl)oxy]phenyl]-5-(4-fluorophenyl)-4-hydroxy-2-methylpyridine-3-carboxamide] | < 0.1 µM | < 0.1 µM | < 0.1 µM | < 0.1 µM
15 | CCc1nc(C)c(-c2ccc(F)cc2C)c(O)c1C(=O)Nc1ccc(Oc2ccnc3cc(OC)c(OC)nc23)cc1 [Compound 203, N-[4-[(6,7-Dimethoxy-1,5-naphthyridin-4-yl)oxy]phenyl]-2-ethyl-5-(4-fluoro-2-methylphenyl)-4-hydroxy-6-methylpyridine-3-carboxamide] | < 0.1 µM | 0.1 to 0.3 µM | < 0.1 µM | < 0.1 µM
16 | COCCOc1nc2c(Oc3ccc(NC(=O)c4c(COC)nc(C)c(-c5ccc(F)cc5C)c4O)cc3F)ccnc2cc1OC [Compound 201, N-[3-Fluoro-4-[[7-methoxy-6-(2-methoxyethoxy)-1,5-naphthyridin-4-yl]oxy]phenyl]-5-(4-fluoro-2-methylphenyl)-4-hydroxy-2-(methoxymethyl)-6-methylpyridine-3-carboxamide] | 0.1 to 0.3 µM | < 0.1 µM | < 0.1 µM | < 0.1 µM
17 | COc1cc2nccc(Oc3ccc(NC(=O)c4cn(C(C)C)c(C)c(-c5cccc(F)c5)c4=O)cc3F)c2nc1OC [Compound 30, N-[4-[(6,7-Dimethoxy-1,5-naphthyridin-4-yl)oxy]-3-fluorophenyl]-5-(3-fluorophenyl)-6-methyl-4-oxo-1-propan-2-ylpyridine-3-carboxamide hydrochloride] | < 0.1 µM | < 0.1 µM | > 0.3 µM | < 0.1 µM
